# Tests used:
# [1] = system: Cav1−/− mice; experiment: RVSP in Cav1−/− mice with PH; format: in vivo, mouse; details: 8 month old Cav1−/− mice; 1 mg/ml in drinking water for 5 wk
# Method: RVSP was determined as follows. Briefly, following anesthesia, mice were prepared for catheterization. A 1.4 F pressure transducer catheter (Millar Instruments) was carefully inserted via the right external jugular vein into the right ventricle to obtain measurements of RVSP using the Acknowledge software (Biopac Systems, Inc.). To determine lung vascular resistance, mice were anesthetized and prepared for perfusion. Pulmonary arterial (Ppa) and venous (Pv) pressures were monitored continuously through the pulmonary arterial and left atrial cannula, which were connected to a pressure transducer. […] Ppa was measured at steady-state and was plotted against the flow, which was measured by weighing the effluent collected over a one-minute period. […]
# To determine whether pharmacological inhibition of eNOS in Cav1^−/− mice can reverse PH, we administered N-Nitro-L-Arginine Methyl Ester (L-NAME), a NOS inhibitor, to Cav1^−/− mice following onset of PH. […] Data are expressed as mean±SD (n=5-7). *, P=0.023 WT versus Cav1^−/−;**, P=0.015 Cav-L versus Cav1^−/−; #, P>0.5 Cav-D versus Cav1^−/−. […] Data are expressed as mean±SD (n=5-7). *, P=0.002 WT versus Cav1^−/−; **, P=0.013 Cav-L versus Cav1^−/−; #, P=0.8 Cav-D versus Cav1^−/−.
# Hemodynamic Measurements. RVSP was determined with a 1.4 F pressure transducer catheter (Millar Instruments) and the Acknowledge software (Biopac Systems, Inc.). […]
# [2] = system: Cav1−/− mice; experiment: Lung histology and muscularized distal pulmonary arteries in Cav1−/− mice; format: in vivo, mouse; details: 8 month old Cav1−/− mice; 1 mg/ml in drinking water for 5 wk
# Method: Following PBS perfusion, the lung tissues were fixed for 5 min by instillation of 10% PBS-buffered formalin through trachea catheterization at a transpulmonary pressure of 15 cm H2O. After tracheal ligation, harvested lungs were fixed with 10% PBS-buffered formalin overnight at […] with agitation. After paraffin processing, the tissues were cut into semithin 4 to […] thick, and stained with either H & E for histological analysis or an antibody against nitrotyrosine (Upstate Biotechnology) for immunohistochemistry. Immunostaining was developed with a Vectastain ABC kit (Vector Laboratories). Histology and Imaging. Lung tissues were fixed and processed for H & E staining and immunofluorescent staining. for 5 min by instillation of 10% PBS-buffered formalin through trachea catheterization at a transpulmonary pressure of 15 cm H2O, and then overnight at 4° C. with agitation. After paraffin processing, the tissues were cut into semi-thin 4 to […] thick, and stained with H & E for histological analysis. For immunofluorescent staining, antigen retrieval was performed by incubating the slides in 10 mM sodium citrate (pH 6.0) at 95° C. for 10 min. […] The anti-a-SMA-positive pulmonary arterial vessels per field (200×) were counted based on the diameter (<40 μm versus>40 μm). Twenty fields per section were randomly identified and counted. […]
# [3] = target: T1, purified PKG-1 (Bos taurus, UniProt P00516); experiment: In vitro kinase assay of purified PKG-1 after peroxynitrite or DETA NONOate; format: biochemical; details: peroxynitrite at indicated concentrations, 14 min at RT
# T1 construct: purchased Promega
# T1 sequence (P00516 1-671): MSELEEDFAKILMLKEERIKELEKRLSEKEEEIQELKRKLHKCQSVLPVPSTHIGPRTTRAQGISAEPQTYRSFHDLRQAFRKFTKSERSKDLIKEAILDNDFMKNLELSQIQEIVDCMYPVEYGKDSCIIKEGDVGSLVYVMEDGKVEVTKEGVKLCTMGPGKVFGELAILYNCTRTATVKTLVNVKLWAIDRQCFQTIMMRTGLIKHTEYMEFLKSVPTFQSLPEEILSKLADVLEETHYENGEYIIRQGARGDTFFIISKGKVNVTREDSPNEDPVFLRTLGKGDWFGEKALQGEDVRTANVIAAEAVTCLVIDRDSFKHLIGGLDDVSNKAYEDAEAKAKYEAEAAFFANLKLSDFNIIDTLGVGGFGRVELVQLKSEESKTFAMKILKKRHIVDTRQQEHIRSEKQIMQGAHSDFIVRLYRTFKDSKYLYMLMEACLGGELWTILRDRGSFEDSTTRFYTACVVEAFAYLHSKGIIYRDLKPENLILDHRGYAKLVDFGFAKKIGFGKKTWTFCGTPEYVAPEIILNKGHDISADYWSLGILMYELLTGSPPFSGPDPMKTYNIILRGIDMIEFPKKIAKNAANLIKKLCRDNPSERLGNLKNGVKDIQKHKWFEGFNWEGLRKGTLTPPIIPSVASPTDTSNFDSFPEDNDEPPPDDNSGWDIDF
# Method: PKG Kinase Assay. In vitro activity of PKG was determined by measuring the transfer of the [g-^32P] phosphate group of ATP to the specific PKG substrate, BPDEtide (Calbiochem) in the absence or presence of exogenous 2.5 mM cGMP as described in Example 13. PKG activity is expressed as picmoles of ^32P incorporated into PKG substrate per min per microgram protein.
# (§1) To address the role of peroxynitrite in the mechanism of the observed impairment of PKG activity, we treated human pulmonary artery smooth muscle cells with 3-morpholinosydnonimine (SIN-1), the superoxide and NO donor that forms peroxynitrite simultaneously (30). […] FIG. 9A relates to dose-dependent impairment of PKG activity by peroxynitrite. Purified […] (Promega) was incubated with peroxynitrite at indicated concentrations for 14 min at RT or with DETA NONOate (NONOate) for 30 min in dark at RT. Kinase activity was then assayed. Data is expressed mean+/−SD (n=3). *, P<0.05 versus control (0 μM). FIG. 9B relates to screening of PKG-1a mutants with in vitro kinase assay. At 48 hr post-transfection, myc-tagged WT and PKG-1a mutants were immunoprecipitated with anti-myc beads and aliquoted for incubation with either peroxynitrite (100 μM) or the same amount of 0.1 N NaOH only (CTL). […] PKG activity was expressed as pmoles/min/μg cell lysates. […] Data are expressed as mean±SD (n=3), *, P<0.05 versus either PKG-1a mutant. […]
# [4] = system: human PKG-1a; experiment: Myc-tagged PKG-1a tyrosine mutants treated with peroxynitrite: kinase assay and tyrosine nitration; format: biochemical; details: in contrast to wildtype PKG-1
# Method: Identification of Nitrated Tyrosine Residues of PKG-1a. Tyrosine residue was mutated to Phenylalanine by site-directed mutagenesis following manufacture's instruction (Stratagene). Myc-tagged wild-type and mutant PKG-1a were overexpressed in human lung microvascular endothelial cells and cell lysates were then immunoprecipitated with anti-Myc for 4 hr at RT. […] Following 14 min incubation in 50 mM K2HPO4 buffer at RT, kinase activity was then measured as described above.
# as §1, with “assay.” for “assay. At 48 hr post-transfection, myc-tagged WT and PKG-1a mutants were immunoprecipitated with anti-myc beads and aliquoted for incubation with either peroxynitrite (100 μM) or the same amount of 0.1 N NaOH only (CTL).”
"PKG activity following peroxynitrite treatment ([4]; PKG-1a with mutation of tyrosine residue 345 or 549, peroxynitrite 100 μM)","Tyrosine nitration following peroxynitrite treatment ([4]; PKG-1 mutants (tyrosine 345 or 549), peroxynitrite 250 μM, 14 min at RT)",SMILES,RVSP [1],Number of muscularized distal pulmonary arteries [2],PKG activity [3]
–,–,COC(=O)[C@H](N)CCCN=C(N)N[N+](=O)[O-] [D-NAME],no effect,no effect,–
no impairment of PKG activity,diminished tyrosine nitration,O=NOO [peroxynitrite],–,–,decreased PKG activity in a concentration-dependent manner

# — US20110171193A1, “COMPOSITIONS AND METHODS FOR TREATING PULMONARY HYPERTENSION” (THE BOARD OF TRUSTEES OF THE UNIVERSITY OF ILLINOIS, priority 2008, published 2011)
